Measurements from paper PMC8405091, “Microwave-assisted Phospha-Michael addition reactions in the 13α-oestrone series and in vitro antiproliferative properties” (Journal of Enzyme Inhibition and Medicinal Chemistry, 2021).

Tests used:
[1] = tested on: UPCI-SCC-131 cells; test: MTT antiproliferative assay, UPCI-SCC-131; format: cell-based, human; settings: Homo sapiens, 72 h, 72 h
Procedure: (§1) The antiproliferative properties of the newly synthesized compounds (9–20) and their starting materials (4 and 5) were determined on a panel of human adherent cancer cell lines. MCF-7, MDA-MB-231 and T47D were isolated from breast cancers differing in biochemical background, while A2780 cells were isolated from ovarian cancer. HeLa and SiHa are cervical cancer cell lines positive for HPV-18 and HPV-16, respectively, while C33-A cervical cancer cells are negative for HPV. Moreover, two oropharyngeal cancer cell lines were also utilized: the HPV-negative UPCI-SCC-131 and HPV-16 positive UPCI-SCC-154. The cancer selectivity of compounds was tested on the non-cancerous mouse embryo fibroblast cell line NIH/3T3. All cell lines were purchased from European Collection of Cell Cultures (ECCAC, Salisbury, UK) exception for SiHa and C33-A (American Tissue Culture Collection, Manassas, VA, USA) and HN-SCC-131 and UPCI-SCC-154 (German Collection of Microorganisms and Cell Cultures GmbH, Braunschweig, Germany). Cells were cultivated in minimal essential medium supplemented with 10% fetal bovine serum, 1% non-essential amino acids and an antibiotic–antimycotic mixture. The medium of oropharyngeal cancer cells additionally contained 2.0 mM L-glutamine. All media and supplements were obtained from Lonza Group Ltd., Basel, Switzerland. Near-confluent cancer cells were seeded onto a 96-well microplate at a density of 5,000 cells/well, except for C33-A which were seeded at 10,000/well. After overnight standing, new medium containing the tested compounds at 10 and 30 µM final concentration was added. After incubation for 72 h at 37 °C in humidified air containing 5% CO2, the living cells were assayed by the addition of 20 μL of 5 mg/ml 3-(4,5-dimethylthiazol-2-yl)-2,5-diphenyltetrazolium bromide (MTT) solution. MTT was converted by intact mitochondrial reductase and precipitated as purple crystals during a 4-h contact period. The medium was next removed and the precipitated formazan crystals were dissolved in 100 μL of DMSO during a 60-min period of shaking at 37 ^оC.
(§2) All in vitro experiments were carried out twice with five parallels. Stock solutions of the tested substances (10 mM) were prepared in DMSO. […] Cisplatin (Ebewe Pharma GmbH, Unterach, Austria) was used as positive control.

[2] = tested on: non-cancerous mouse embryo fibroblast (NIH/3T3) cells; test: MTT assay on non-cancerous fibroblasts (tumour selectivity); format: cell-based; settings: Mus musculus, NIH3T3, 72 h
Procedure: as §1, §2

[3] = tested on: A2780 cells; test: MTT antiproliferative assay, A2780; format: cell-based, human; settings: Homo sapiens, A2780, 72 h
Procedure: as §1, §2

[4] = tested on: MCF-7 cells; test: MTT antiproliferative assay, MCF-7; format: cell-based, human; settings: Homo sapiens, MCF7, 72 h
Procedure: as §1, §2

[5] = tested on: UPCI-SCC-154 cells; test: MTT antiproliferative assay, UPCI-SCC-154; format: cell-based, human; settings: Homo sapiens, 72 h, 72 h
Procedure: as §1, §2

[6] = tested on: panel of human adherent cancer cell lines; test: MTT antiproliferative assay, whole panel of cell lines; format: cell-based; settings: read-out: IC50 (span over the panel)
Procedure: as §1, with “^оC. […]” for “^оC.”

[7] = tested on: T47D cells; test: MTT antiproliferative assay, T47D; format: cell-based, human; settings: Homo sapiens, 72 h
Procedure: as §1, §2

[8] = tested on: HeLa cells; test: MTT antiproliferative assay, HeLa; format: cell-based, human; settings: Homo sapiens, 72 h
Procedure: as §1, §2

[9] = tested on: C33-A cells; test: MTT antiproliferative assay, C33-A; format: cell-based, human; settings: Homo sapiens, C-33-A, 72 h
Procedure: as §1, §2

[10] = tested on: MDA-MB-231 cells; test: MTT antiproliferative assay, MDA-MB-231; format: cell-based, human; settings: Homo sapiens, MDA-MB-231, 72 h
Procedure: as §1, §2

[11] = tested on: SiHa cells; test: MTT antiproliferative assay, SiHa; format: cell-based, human; settings: Homo sapiens, 72 h
Procedure: as §1, §2

[12] = read-out: calculated IC50 value
[13] = read-out: Growth inhibition, % ± SEM
[14] = read-out: Growth inhibition, % ± SEM, 10 μM
[15] = read-out: Growth inhibition, % ± SEM, 30 μM

## COc1ccc2c(c1)CC[C@@H]1[C@@H]2CC[C@@]2(C)C(=O)[C@@H](CP(=O)(c3ccc(C)cc3)c3ccc(C)cc3)C[C@@H]12 [Compound 14, [(3-methoxy-17-oxo-13α-oestra-1,3,5(10)-trien-16β-yl)methyl]di-p-tolylphosphine oxide]
[1]; read-out: Growth inhibition, % ± SEM, UPCI-SCC-131, 10 μM
  inhibition at 10 µM: 48.8 ± 1.5%
[1]; read-out: Growth inhibition, % ± SEM, UPCI-SCC-131, 30 μM
  inhibition at 30 µM: 97.3 ± 1.38%
[1]; [12]
  IC50: 10.9 µM
[2]; [13]
  inhibition at 10 µM: < 20%
  inhibition at 30 µM: 52.7 ± 2.87%
[2]; [12]
  IC50: 29.6 µM
[3]; read-out: Growth inhibition, % ± SEM, A2780, 10 μM, 72 h
  inhibition at 10 µM: < 20%
[3]; read-out: Growth inhibition, % ± SEM, A2780, 30 μM, 72 h
  inhibition at 30 µM: 100.3 ± 0.22%
[3]; [12]
  IC50: 21.5 µM
[4]; read-out: Growth inhibition, % ± SEM, MCF-7, 10 μM, 72 h
  inhibition at 10 µM: < 20%
[4]; read-out: Growth inhibition, % ± SEM, MCF-7, 30 μM, 72 h
  inhibition at 30 µM: 90 ± 2.88%
[4]; [12]
  IC50: 14.4 µM
[5]; read-out: Growth inhibition, % ± SEM, UPCI-SCC-154, 10 μM
  inhibition at 10 µM: < 20%
[5]; read-out: Growth inhibition, % ± SEM, UPCI-SCC-154, 30 μM
  inhibition at 30 µM: 87 ± 1.16%
[5]; [12]
  IC50: 11.4 µM
[6]
  IC50: 10 to 25 µM
[7]; [14]
  inhibition at 10 µM: 22.6 ± 1.33%
[7]; [15]
  inhibition at 30 µM: 86 ± 1.51%
[7]; [12]
  IC50: 13.8 µM
[8]; [14]
  inhibition at 10 µM: < 20%
[8]; [15]
  inhibition at 30 µM: 99.14 ± 0.37%
[8]; [12]
  IC50: 12.2 µM
[9]; read-out: Growth inhibition, % ± SEM, C33-A, 10 μM
  inhibition at 10 µM: 26.9 ± 2.13%
[9]; read-out: Growth inhibition, % ± SEM, C33-A, 30 μM
  inhibition at 30 µM: 101.1 ± 0.24%
[9]; [12]
  IC50: 10.9 µM
[10]; [13]
  inhibition at 10 µM: < 20%
  inhibition at 30 µM: 98.22 ± 0.39%
[10]; [12]
  IC50: 17.6 µM
[11]; [14]
  inhibition at 10 µM: < 20%
[11]; [15]
  inhibition at 30 µM: 93 ± 1.37%
[11]; [12]
  IC50: 11.8 µM
